Marks after values point to notes of the source that are not given here.
Experiments:
[1] = tested on: retinoic acid receptor (RAR); assay: RAR luciferase reporter in transfected 3T3-L1 preadipocytes; assay type: cell-based; conditions: ABA 10 μM with retinoic acid 10 μM
Description: A pCMX.L-RXR or pCMX.RAR expression plasmid and a luciferase reporter plasmid were purified using Qiagen's Maxi kit (Valencia, Calif.). 3T3-L1 preadipocytes (American Type Culture Collection, Manassas, Va.) were grown in DMEM high glucose medium (Invitrogen, Carlsbad, Calif.) containing 10% fetal bovine serum (FBS). The cells cultured in 25 cm^2 flasks were co-transfected with 0.6 ug plasmid DNA and 1 ng of pRL reporter control plasmid per well using F-2 transfection reagents (Targeting Systems, Santee, Calif.) according to the manufacturer's protocol. After 24 hours, transfected cells were split trypsin and seeded into 96-well white plates at a concentration of 20,000 cells/wells. The transfected cells were then treated with 9-cis retinoic acid (0, 10 μM; Sigma), or retinoic acid (RA, 10 μM; Sigma), with ABA (10 μM; Sigma) Transfected cells were harvested in reporter lysis reagent. Luciferase activity, normalized to pRL activity in the cell extracts was determined by using the dual luciferase reporter assay system (Promega, Madison, Wis.) in a Modulus 96-well plate reader (Turner Biosystems, Sunnyvale, Calif.). Relative luciferase activity (RLA) was calculated as a ratio of the chemiluminescence 10 seconds after the Luciferase Assay Reagent II (Promega) was added over the chemiluminescence 10 seconds after the Stop&Glo Reagent (Promega).

[2] = Dietary ABA and rosiglitazone in obese db/db mice: body and organ weights; assay type: in vivo; conditions: db/db mice, ABA 100 mg/kg diet, day 60
Description: Twelve-fifteen week-old BKS.Cg-+Lepr^db/+Lepr^db/OlaHsd (db/db) mice were housed at the animal facilities at Virginia Polytechnic Institute and State University in a room maintained at 75° F., with a 12:12 h light-dark cycle starting from 6:00 AM. All experimental procedures were approved by the Institutional Animal Care and Use Committee of Virginia Polytechnic Institute and State University and met or exceeded requirements of the Public Health Service, National Institutes of Health and the Animal Welfare Act. […] Louis, Mo.) for 60 days. Mice were weighed and fasting (12 h) blood glucose levels were taken weekly. Blood glucose levels were assessed with an ACCU-CHEK® Glucometer (Roche, Indianapolis, Ind.). […] On day 60 mice were sacrificed by CO2 narcosis with secondary thoracotomy. Abdominal WAT, inguinal subcutaneous WAT, and liver were then excised and weighed. Abdominal and subcutaneous WAT were then digested and fractionated.

[3] = tested on: human aorta endothelial cells (HAECs); assay: Intracellular cAMP assessment in HAECs; assay type: cell-based; conditions: 5 min stimulation, beginning at 0.1 uM ABA
Description: These cells were serum-starved using HBSS buffer for 30 min and then stimulated with various concentrations of abscisic acid (ABA) or Forskolin (forsk, 1 uM) for 5 minutes. After removing supernatant, cells were lysed with 0.1 M HCL to measure nonacetylated cAMP. Results (pmol/ml) from four independent experiments are depicted. Data are represented as mean±standard error.
Confluent human aorta endothelial cells (HAECs) were serum-starved using HBSS buffer for 30 min, then stimulated with various concentration of ABA and Forskolin (1 uM) for 5 min, after removing supernatant, cells were lysed with 0.1 M HCL to measure non-acetylated cAMP using a commercially available kit (Cayman chemical) following the manufacturer's instructions. Results (pmol/mL) were obtained from four independent experiments. For nitric oxide (NO), confluent HAECs were serum-starved for 30 min by using HBSS buffer, then treated with ABA for 15 min. Supernatant was used to measure NO using an fluorescent kit.

[4] = Intraperitoneal glucose tolerance test and fasting insulin in db/db mice; assay type: in vivo
Description: Obese db/db mice were fed high-fat diets containing […] mg/kg diet rosiglitazone maleate (control, Ros^lo, and Ros^hi, respectively) with and without racemic ABA (100 mg/kg diet). On day 42 mice underwent an intraperitoneal glucose tolerance test (IPGTT) (A). Areas under the curve (B) were calculated for each treatment. On day 55 fasting insulin levels were measured for mice on each diet (C). Data are represented as mean±standard error.
Mice (n=40) were fed one of six experimental diets: a control high-fat diet (control), a high-fat diet containing low dose rosiglitazone maleate (Ros^lo, 10 mg/kg diet), or a high-fat diet containing a high dose of rosiglitazone maleate (Ros^hi, 70 mg/kg diet), each with or without all racemic ABA (100 mg/kg, Sigma Aldrich, St. Louis, Mo.) for 60 days. Mice were weighed and fasting (12 h) blood glucose levels were taken weekly. Blood glucose levels were assessed with an ACCU-CHEK® Glucometer (Roche, Indianapolis, Ind.). An intraperitoneal glucose tolerance test (IPGTT, 1 g glucose/kg body weight) was conducted on fasted mice (12 h) for 0, 30, 90, and 180 minute time points and insulin levels were measured on day 54. On day 60 mice were sacrificed by CO2 narcosis with secondary thoracotomy. Abdominal WAT, inguinal subcutaneous WAT, and liver were then excised and weighed. Abdominal and subcutaneous WAT were then digested and fractionated.

CC1=CC(=O)CC(C)(C)C1(O)/C=C/C(C)=C\C(=O)O (racemic) [ABA, abscisic acid]
activity of RAR ligands [1]: synergistically enhances
Ab. WAT % Body Weight ([2]; no rosiglitazone): 4.7 ± 0.68^a % Body Weight
Sc. WAT % Body Weight ([2]; no rosiglitazone): 2.8 ± 0.48 % Body Weight
Ab. WAT as percent body weight (in words) ([2]; Ros^hi): significantly and independently reduced
inguinal SCAT weight (in words) ([2]; Ros^hi): little affect
intracellular cAMP concentration [3]: significantly increased
glucose tolerance (IPGTT) ([4]; day 42, relative to the control diet): significantly improved
fasting insulin levels ([4]; dietary ABA 100 mg/kg diet, P=0.04): significantly reduced

From US9119881B2, “Method of synergistically enhancing the therapeutic efficacy and safety of medication through a combination therapy” (priority 2010, dated 2015)
